Results on 10 compounds are retold here after US11760761B2, “Methods and compositions for targeting PD-L1” (Aligos Therapeutics, Inc., priority 2020, dated 2023).

pEC50, pIC50: −log10 of the molar value. A value given as a limit tells only on which side of the number the result lay.

For one assay, the target named is PD-1/PD-L1 interaction (Homo sapiens (Human), UniProt Q9NZQ7). The assay is described as follows: PD-1/PD-L1 NFAT Reporter Assay (Jurkat T cells / PD-L1 expressing CHO cells co-culture). It is filed as cell-based. The following applies: for Emax: Jurkat, maximum NFAT-activation level relative to the positive control (10 nM Atezolizumab); for pEC50: co-culture 6 hrs at 37° C., luciferase. The procedure:
Blocking the PD-1/PD-L1 interaction will release the inhibitory signal and results in TCR signaling and NFAT-mediated luciferase activity.
CHO cells expressing surface-bound anti-CD3 antibodies and PD-L1 were first seeded overnight and treated with the compounds. Jurkat cells overexpressing PD-1 and a luciferase construct under NF-AT promoter were then immediately seeded on the monolayer of CHO cells. The co-culture was then incubated for 6 hrs at 37° C. Luciferase activity was assessed by adding the ONE-Glo reagent and measuring luminescence with a plate reader. EC50s values were determined from the fit of the dose-response curves Emax (%) corresponds to the maximum NFAT-activation level reached by a given compound relative to the positive control (10 nM Atezolizumab).
Background: Reporter assays use an easily measured gene product as a stand-in for the process of interest.

For the next assay, the target named is PDL1/PD1 (Homo sapiens (Human), UniProt Q9NZQ7). As to the kind of experiment: PDL1/PD1 Binding Assay. The following applies: PDL1-6xHis 0.3 nM, PD1-Fc-Avi-Biotin 2.5 nM, Acceptor/Donor beads; read-out: PD-1/PD-L1 PPI IC50. The procedure:
Compounds to be tested were serially diluted in DMSO, and further diluted in assay buffer (25 mM Hepes pH 7.4, 150 mM NaCl, 0.005% Tween 20, BSA 0.01%). Diluted compounds were added to the wells with final concentration of DMSO at 1%. PDL1-6×His protein was added to the wells, mixed well with compound. The plates were incubated for 30 min at room temperature. PD1-Fc-Avi-Biotin protein was added to the wells. Final concentration of PDL1 and PD1 protein is 0.3 nM and 2.5 nM, respectively. After a binding time of 30 min at room temperature, Anti-6×His Acceptor beads (final concentration 20 ug/ml) were added to the wells, and the incubation continued for 1 h. Streptavidin Donor beads (final concentration 20 ug/mL) were added at reduced light. The plates were sealed with foil and incubated in the dark for additional 1 h or overnight before reading on an Envision reader. The IC50 values were determined by fitting the curves using a four-parameter equation in Graphpad Prism 8.

For a further assay, the target named is PDL1 (Homo sapiens (Human), UniProt Q9NZQ7). The assay is described as follows: PDL1 Dimerization Assay. The class given is biochemical. The following applies: 0.5 nM PDL1-6xHis, 0.5 nM PDL1-strep; read-out: PD-L1 dimerization EC50. As to the method: Serially diluted compounds were added to plate wells with the final concentration of DMASO at 1%. PDL1-6×His and PDL1-strep proteins were diluted in assay buffer (25 mM Hepes pH 7.4, 150 mM NaCl, 0.005% Tween 20, BSA 0.01%), added to the wells, and mixed well with the compounds. The plates were incubated for 2 h at room temperature. Anti-6×His Acceptor beads were added to the wells and the plates were further incubated for 1 h at room temperature. Strep-tactin Donor beads were added to the wells at reduced light. After additional 1 h incubation in the dark, the plates were read on a Envision reader. The final concentrations were 0.5 nM PDL1-6×His, 0.5 nM PDL1-strep, 20 ug/mL Anti-6×His Acceptor beads, 20 ug/mL Strep-tactin Donor beads. The EC50 values were determined by fitting the curves using a four-parameter equation in Graphpad Prism 8.
Chain of PDL1 (Q9NZQ7 19-238): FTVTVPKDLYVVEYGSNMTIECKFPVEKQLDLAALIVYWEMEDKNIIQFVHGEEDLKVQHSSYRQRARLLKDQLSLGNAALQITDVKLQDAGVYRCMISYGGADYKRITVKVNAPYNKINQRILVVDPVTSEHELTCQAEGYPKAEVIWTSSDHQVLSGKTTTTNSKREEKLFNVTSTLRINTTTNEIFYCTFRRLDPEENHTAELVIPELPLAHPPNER
Chain of PDL1 (Q9NZQ7 19-238): as above

Chain of PD-1/PD-L1 interaction (Q9NZQ7 19-290): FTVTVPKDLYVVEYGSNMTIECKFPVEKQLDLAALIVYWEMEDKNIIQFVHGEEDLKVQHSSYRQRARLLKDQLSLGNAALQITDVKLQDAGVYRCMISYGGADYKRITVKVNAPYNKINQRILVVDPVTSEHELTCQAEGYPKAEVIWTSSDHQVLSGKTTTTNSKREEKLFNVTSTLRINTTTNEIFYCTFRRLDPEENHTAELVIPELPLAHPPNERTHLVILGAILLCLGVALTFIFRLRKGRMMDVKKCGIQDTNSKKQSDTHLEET
Chain of PDL1/PD1 (Q9NZQ7 19-238): as the sequence (Q9NZQ7 19-238) above

Take `COc1cc(-c2cccc(-c3cccc(-c4cnc(CN5CC6(CCC(=O)N6)C5)c(OC)n4)c3Cl)c2Cl)cc2c1[C@H](N1CC3(CCC(=O)N3)C1)CC2` (single isomer, unassigned) [Compound A-8]: on PD-1/PD-L1 interaction, the maximum response (Emax) (as a rule, the maximal effect, on the per cent scale that the assay sets) was 145% and the pEC50 (usually −log10 of the EC50, conventionally taken in molar units) was 6.00 to 7.00. Moreover, the pIC50 on PDL1/PD1 is not below 8.00. Also, on PDL1, the negative-log EC50 (pEC50) is 5.00 to 6.00.

On PD-1/PD-L1 interaction, `COc1cc(-c2cccc(-c3cccc(-c4cnc(CN5CC(O)C5)c(OC)n4)c3Cl)c2Cl)cc2c1[C@@H](N1CC(O)C1)CC2` (single isomer, unassigned) [Compound A-9] had an Emax of 105% and a negative-log EC50 (pEC50) of 6.00 to 7.00. Also, at PDL1/PD1, the pIC50 was not below 8.00. Besides, the negative logarithm of the EC50 (pEC50) at PDL1 is 5.00 to 6.00.

The compound `COc1cc(-c2cccc(-c3cccc(-c4cnc(CN5CC6(CCC(=O)N6)C5)c(OC)n4)c3Cl)c2Cl)cc2c1[C@H](NCC(=O)O)CC2` (single isomer, unassigned) [Compound B-2] came in with an Emax on PD-1/PD-L1 interaction of 107%. In addition, the pEC50 was 6.00 to 7.00 at PD-1/PD-L1 interaction and 5.00 to 6.00 on PDL1.

`COc1cc(-c2cccc(-c3cccc(-c4cnc(CN5CC6(CCC(=O)N6)C5)c(OC)n4)c3Cl)c2Cl)cc2c1[C@@H](NCC(=O)O)CC2` [Compound B-1]: on PD-1/PD-L1 interaction, the Emax is 89% and the pEC50 is 5.00 to 6.00. Besides, the pEC50 at PDL1 was 5.00 to 6.00.

Consider `COc1nc(-c2cccc(-c3cccc(-c4cc5c(c(OC)n4)[C@@H](NC[C@@H]4CCC(=O)N4)CC5)c3Cl)c2Cl)cnc1CN1C[C@@H](O)[C@@H]1C` [Compound D-13], for which the negative logarithm of the EC50 (pEC50) on PD-1/PD-L1 interaction is not below 8.00. In addition, at PDL1/PD1, the pIC50 was not below 8.00.

In turn, `COc1nc(-c2cccc(-c3cccc(-c4cc5c(c(OC)n4)[C@@H](NC[C@@H]4CCC(=O)N4)CC5)c3Cl)c2Cl)ccc1CN1CC2(CCC(=O)N2)C1` [Compound E-3] had a negative logarithm of the EC50 (pEC50) at PD-1/PD-L1 interaction not below 8.00. For the same compound, the pIC50 at PDL1/PD1 is not below 8.00.

For the compound `COc1nc(-c2cccc(-c3cccc(-c4cc5c(c(OC)n4)C(N4CCC[C@H](C(=O)O)C4)CC5)c3Cl)c2Cl)cnc1CN1CC(O)C1` (some centres unmarked) [Compound F-2], at PD-1/PD-L1 interaction, the pEC50 was 7.00 to 8.00. In addition, the pIC50 at PDL1/PD1 is not below 8.00.

As to `COc1nc(-c2cccc(-c3cccc(-c4cc5c(c(OC)n4)C(N4CCC(C(=O)O)CC4)CC5)c3Cl)c2Cl)cnc1CN1CC(O)C1` (centres unmarked) [Compound F-3], at PD-1/PD-L1 interaction, the pEC50 was 7.00 to 8.00. In addition, the pIC50 on PDL1/PD1 is not below 8.00.

For `COc1nc(-c2cccc(-c3cccc(-c4cc5c(c(OC)n4)CCN(CC(=O)O)C5)c3Cl)c2Cl)cnc1CN1CC(C)(O)C1` [Compound J-2], the pEC50 on PD-1/PD-L1 interaction is 7.00 to 8.00. Further, at PDL1/PD1, the pIC50 was not below 8.00.

With `COc1nc(-c2cccc(-c3cccc(-c4cc5c(c(OC)n4)CCN(CC(=O)O)C5)c3Cl)c2Cl)cnc1CN1CC(O)(C(F)(F)F)C1` [Compound J-3], at PD-1/PD-L1 interaction, the pEC50 is 5.00 to 6.00. In addition, the pIC50 on PDL1/PD1 was not below 8.00.
